Numbers after ± are expanded uncertainties.
How the values were obtained:
[1] = xn = mol fraction of the nth substance listed; conditions: 294 K; for mass density / viscosity: 101 kPa, Liquid; for mass density: Vibrating tube method
[2] = refractive index (Na D-line) (dimensionless); xn = mol fraction of the nth substance listed; conditions: 294 K, 101 kPa, Liquid, Standard Abbe refractometry

OCC(O)CO [glycerol] + CCO
Conditions	mass density, [1] [kg/m3]	refractive index, [2]	surface tension liquid-gas, [1] [mN/m]	viscosity, [1] [mPa·s]
x2 = 0	1261.51 ± 0.34	1.474 ± 0.0035	63.1 ± 3.2	1390 ± 350
x2 = 0.084	1233.48 ± 0.75	1.468 ± 0.0035	52 ± 2.7	800.5 ± 160
x2 = 0.1222	1220.3 ± 0.77	1.466 ± 0.0035	48.8 ± 2.6	627.9 ± 120
x2 = 0.1761	1201.19 ± 0.78	1.4619 ± 0.0035	43 ± 2.3	450 ± 73
x2 = 0.2037	1191.35 ± 0.79	1.4592 ± 0.0034	41.7 ± 2.2	385.1 ± 58
x2 = 0.2385	1178.37 ± 0.81	1.4562 ± 0.0034	39.4 ± 2.1	270 ± 34
x2 = 0.2789	1162.98 ± 0.84	1.4528 ± 0.0034	35.8 ± 2	220.5 ± 24
x2 = 0.351	1134.3 ± 0.86	1.447 ± 0.0034	33.2 ± 1.9	141.4 ± 11
x2 = 0.4138	1108.32 ± 0.9	1.4392 ± 0.0034	29.7 ± 1.7	80.71 ± 4.3
x2 = 0.4841	1077.53 ± 0.94	1.4326 ± 0.0034	28.5 ± 1.6	54.01 ± 2.7
x2 = 0.5497	1047.03 ± 0.98	1.4253 ± 0.0034	27.1 ± 1.6	31.52 ± 2.2
x2 = 0.6046	1020.27 ± 1	1.4179 ± 0.0034	25.1 ± 1.5	20.31 ± 2.1
x2 = 0.6526	995.96 ± 1.1	1.4131 ± 0.0033	24.3 ± 1.4	16.7 ± 2.1
x2 = 0.7451	946.41 ± 1.1	1.4016 ± 0.0033	23.5 ± 1.4	9.096 ± 2
x2 = 0.7984	916.05 ± 1.2	1.3934 ± 0.0033	23.5 ± 1.4	5.217 ± 2
x2 = 0.8336	895.63 ± 1.2	1.3885 ± 0.0033	23 ± 1.4	4.1 ± 2
x2 = 0.8777	868.79 ± 1.2	1.3815 ± 0.0033	22.5 ± 1.4	3.037
x2 = 0.9353	832.89 ± 1.3	1.3727 ± 0.0032	22.4 ± 1.4	1.898
x2 = 0.9596	816.85 ± 1.4	1.3681 ± 0.0032	22.3 ± 1.3	1.49

CCO [ethanol] + OCC(O)CO
x1 = 1
Conditions	mass density [kg/m3]	refractive index	surface tension liquid-gas [mN/m]	viscosity [mPa·s]
[1]	789.91 ± 0.22	–	22.2 ± 1.3	1.214
[2]	–	1.3618 ± 0.0032	–	–
